SMILES strings stand for the structures.

The target of data set [1] is T1, SCD1 (Homo sapiens, UniProt O00767).
T1 sequence (O00767 1-359): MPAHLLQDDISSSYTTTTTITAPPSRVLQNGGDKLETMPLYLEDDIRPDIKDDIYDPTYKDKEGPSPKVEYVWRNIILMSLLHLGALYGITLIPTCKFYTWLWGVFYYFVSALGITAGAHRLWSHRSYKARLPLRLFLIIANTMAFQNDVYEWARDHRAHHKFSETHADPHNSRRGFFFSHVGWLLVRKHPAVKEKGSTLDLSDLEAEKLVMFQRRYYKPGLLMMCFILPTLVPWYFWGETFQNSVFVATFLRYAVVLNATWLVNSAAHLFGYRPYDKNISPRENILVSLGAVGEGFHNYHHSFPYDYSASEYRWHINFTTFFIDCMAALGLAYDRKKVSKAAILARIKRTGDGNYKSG
Description: SCD1 activity measurement ([1-14C] stearic acid pulse-chase labeling). The settings on record: 20 μM, 12 hours. Type of data set: cell-based. Set-up: PluriSIn #1 decreased SCD1 activity by approximately 65% decrease in ES cells; endogenous in cells; host or cells: human embryonic stem cells (H9, printed '1-19'). How it is done:
Cells were plated in 6-well plates at a density of 50,000 to 100,000 cells per well. 24 hours later, 20 μM of PluriSIn #1 (isonicotinic acid N′-phenylhydrazide) or 0.2% DMSO (control) were added to the cells. After 12 hours of incubation at 37° C., under 5% CO2, the old medium was removed, cells were washed with PBS, and new medium containing 2.3 μM of 0.75 μCi of [1-^14C] stearic acid was added. The cells were then incubated for up to 4 hours at 37° C., under 5% CO2.
After the incubation period, the medium was discarded and the cells were washed 3 times with 2 ml of PBS. 2 ml of an n-hexane:isopropanol mixture (3:2 v:v) were added, and the cells were then incubated for 30 minutes at a temperature of 37° C., under 5% CO2. […] The free fatty acids were detected by ultraviolet illumination after spraying the TLC with a 2′,7′-dichlorofluorescein solution. The spots corresponding to stearic and oleic acid were scraped and the radioactivity counted in a Packard Tri-Carb® 1600TR scintillating counter. SCD1 desaturase activity was calculated from the percent conversion of substrate to product and the conversion to picomoles per minute per 10^6 cells. […]
In order to directly examine whether PluriSin #1 inhibits SCD activity, and whether this inhibition is restricted to pluripotent cells, SCD1 activity was measured by a pulse-chase labeling assay, as described in the Materials and Methods section. […]

For data set [2], the system named is protein synthesis in BJ fibroblasts. The experiment in a line: 35S-Met metabolic labeling of protein synthesis, fibroblasts. Type of data set: cell-based, human. The conditions noted are these: 12 hours, 20 μM. How it is done:
H9 embryonic stem cells were seeded in Matrigel™ pre-coated 6-well tissue culture plates at a density of 2×10^5 cells/well, and cultured using mTeSR1 defined medium. BJ fibroblasts were seeded in 6-well tissue culture plate at the same density, and cultured with DMEM supplemented with 10% FBS, penicillin (50 U/ml) and streptomycin (50 μg/ml). Cells were treated for 12 hours with either 20 μM PluriSIn #1 (isonicotinic acid N′-phenylhydrazide) or with 0.2% DMSO. Cells were then washed with PBS, and replenished with methionine-deficient medium for 1 hour. Metabolic labeling of the cells was then performed for 1 hour with 10 μCi of […] methionine in 1 ml/well, in the presence of 20 μM PluriSIn #1 or 0.2% DMSO. Cells were washed with PBS containing 10 mM methionine, and were then lysed in 0.4 ml of 30% ice-cold trichloroacetic acid (TCA) containing 10 mM methionine for 15 minutes. […] Total protein concentration was determined using a Bradford Protein Assay (Sigma-Aldrich), and the radioactivity measurements were normalized accordingly. […]
The similarity between PSIs and PluriSIn #1 and #6 is consistent with the fact that UPR can lead to translational attenuation. In order to confirm this link, the effect of PluriSIn #1 treatment on protein synthesis was determined. […]

Data set [3] concerns undifferentiated stem-like glioma cells (SLGCs). The experiment in a line: Methylene blue viability, undifferentiated SLGCs. The format is cell-based. The conditions noted are these: up to 100 μM, 72 hours, 2% fetal bovine serum. How it is done:
For the high-throughput screens, relative cell number was determined using a CellTiter-Glo® Luminescent Cell Viability Assay as described hereinabove. Otherwise, relative cell numbers were determined by fixating the cells with 0.5% glutardialdehyde and staining with methylene blue dissolved in 0.1 M boric acid (pH 8.5). Color extraction was performed using 0.1 M hydrochloric acid, and the staining (which is proportional to cell number) was quantified by measuring absorbance at a wavelength of 650 nm.
In a second experiment, undifferentiated stem-like glioma cells (SLGCs) were compared with SLGCs differentiated by monolayer adhesion and exposure to 1 μM retinoic acid for one week, in accordance with procedures described by Campos et al. [Clinical Cancer Research 16:2715-2728 (2010)]. Differentiation of SLGCs is associated with a reduction in tumorigenicity [Campos et al., Clinical Cancer Research 16:2715-2728 (2010)].
The differentiated and undifferentiated cells were exposed to PluriSIn #1 at concentrations of up to 100 μM for 72 hours under low (2%) fetal bovine serum conditions. Their viability was then measured using a methylene blue viability assay, as described hereinabove.

Take `O=C(NNc1ccccc1)c1ccncc1` [PluriSIn #1, isonicotinic acid N′-phenylhydrazide]: in data set [1], the “decrease in SCD1 activity in ES cells” value is recorded as “approximately 65%”. The “effect on protein synthesis, differentiated cells (fibroblasts)” value in data set [2] is given as “no effect”. Further, in data set [3], the “cytotoxicity towards undifferentiated SLGC” value is listed as “highly cytotoxic”.

These data come from US20180153830A1, “SELECTIVE INHIBITORS OF UNDIFFERENTIATED CELLS” (Yissum Research Development Company of the Hebrew …, priority 2012, published 2018).
